Measurements reported in patent US10005767B2, “Compositions and methods for inhibition of the JAK pathway” (Rigel Pharmaceuticals, Inc., priority 2009, dated 2018).

The compounds below were run on human primary T-cells, IL-2 stimulated proliferation (JAK-1 and JAK-3 dependent; reported as JAK3 activity) (assay: Human primary T-cell proliferation stimulated by IL-2 (Example 3)). Details: Homo sapiens, T-cell, tested under conditions described in Example 3 (IL-2 stimulated human primary T-cell proliferation); read-out: ability to inhibit JAK3 activity, IC50 range (Table V).
Format: cell-based
Procedure, shortened: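 Peripheral-blood human T-cells pre-activated via TCR/CD28, IL-2-starved overnight, then cultured 72 h at 37 °C with compound in Yssel's medium containing IL-2 (80 U/mL in cell suspension). Proliferation read as viable-cell ATP by CellTiter-Glo luminescence; reduction versus control taken as JAK pathway inhibition.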

**Q.** With Cc1cnc(Nc2ccc(N3C[C@@H](C)N[C@@H](C)C3)nc2)nc1Nc1ccc2oc(=O)[nH]c2c1 [II-131, N2-[2-(cis-3,5-dimethylpiperazino)pyridin-5-yl]-5-methyl-N4-(2-oxo-2,3-dihydro-1,3-benzoxazol-5-yl)-2,4-pyrimidinediamine] as the compound, how does the IC50 read?
**A.** Its IC50 is under 500 nM.

**Q.** Cc1cnc(Nc2ccc(N3CCC4(CCN(C)C4)C3)nc2)nc1Nc1ccc2oc(=O)[nH]c2c1 (stereo not shown) [II-133, 5-methyl-N2-[2-(7-methyl-2,7-diazaspiro[4.4]nonan-2-yl)pyridin-5-yl]-N4-(2-oxo-2,3-dihydro-1,3-benzoxazol-5-yl)-2,4-pyrimidinediamine] was tested. Which IC50 did it give?
**A.** Its IC50 is under 500 nM.

**Q.** Which IC50 does the source give for Cc1cnc(Nc2ccc(N3CCO[C@H](C)C3)nc2)nc1Nc1ccc2oc(=O)[nH]c2c1 [II-135, 5-methyl-N2-[2-(2R-methylmorpholino)pyridin-5-yl]-N4-(2-oxo-2,3-dihydro-1,3-benzoxazol-5-yl)-2,4-pyrimidinediamine] here?
**A.** The IC50 was under 500 nM.

**Q.** Cc1cnc(Nc2ccc(N3CCN(C(C)C)CC3)nc2)nc1Nc1ccc2oc(=O)[nH]c2c1 [II-136, N2-[2-(4-isopropylpiperazino)pyridin-5-yl]-5-methyl-N4-(2-oxo-2,3-dihydro-1,3-benzoxazol-5-yl)-2,4-pyrimidinediamine] was tested. Which IC50 did it give?
**A.** The IC50 was under 500 nM.

**Q.** Cc1cnc(Nc2ccc(N3C[C@H]4C[C@@H]3CO4)nc2)nc1Nc1ccc2oc(=O)[nH]c2c1 [II-139, 5-methyl-N2-{2-[(1R,4R)-2-oxa-5-azabicyclo[2.2.1]heptan-5-yl]pyridin-5-yl}-N4-(2-oxo-2,3-dihydro-1,3-benzoxazol-5-yl)-2,4-pyrimidinediamine] was tested. Which IC50 did it give?
**A.** The IC50 was under 500 nM.

**Q.** How did the IC50 turn out when COc1cc(Nc2ncc(C)c(Nc3ccc4oc(=O)[nH]c4c3)n2)cnc1OC [II-140, N2-(2,3-dimethoxypyridin-5-yl)-5-methyl-N4-(2-oxo-2,3-dihydro-1,3-benzoxazol-5-yl)-2,4-pyrimidinediamine] was run?
**A.** The IC50 was under 500 nM.

**Q.** How did the IC50 turn out when COc1ncc(Nc2ncc(C)c(Nc3ccc4oc(=O)[nH]c4c3)n2)cc1C [II-141, N2-(2-methoxy-3-methylpyridin-5-yl)-5-methyl-N4-(2-oxo-2,3-dihydro-1,3-benzoxazol-5-yl)-2,4-pyrimidinediamine] was run?
**A.** The IC50 was under 500 nM.

**Q.** Cc1cc(N2CCN(C)CC2)ncc1Nc1ncc(C)c(Nc2ccc3oc(=O)[nH]c3c2)n1 [II-143, N2-[4-methyl-2-(4-methylpiperazino)pyridin-5-yl]-5-methyl-N4-(2-oxo-2,3-dihydro-1,3-benzoxazol-5-yl)-2,4-pyrimidinediamine] was tested. Which IC50 did it give?
**A.** Its IC50 is 500 to 5000 nM.

**Q.** Cc1cnc(Nc2ccc(OC(C)C)nc2)nc1Nc1ccc2oc(=O)[nH]c2c1 [II-144, N2-(2-isopropoxypyridin-5-yl)-5-methyl-N4-(2-oxo-2,3-dihydro-1,3-benzoxazol-5-yl)-2,4-pyrimidinediamine] was tested. Which IC50 did it give?
**A.** The IC50 was under 500 nM.

**Q.** Which IC50 does the source give for COc1ncc(Nc2ncc(C)c(Nc3ccc4oc(=O)[nH]c4c3)n2)cc1C(F)(F)F [II-147, N2-(2-methoxy-3-trifluoromethylpyridin-5-yl)-5-methyl-N4-(2-oxo-2,3-dihydro-1,3-benzoxazol-5-yl)-2,4-pyrimidinediamine] here?
**A.** Its IC50 is under 500 nM.

**Q.** Which IC50 does the source give for Cc1cnc(Nc2cnc(N3CCN4CCC3CC4)c(Cl)c2)nc1Nc1ccc2oc(=O)[nH]c2c1 [II-150, 5-(2-(6-(1,4-diazabicyclo[3.2.2]nonan-4-yl)-5-chloropyridin-3-ylamino)-5-methylpyrimidin-4-ylamino)benzo[d]oxazol-2(3H)-one] here?
**A.** Its IC50 is under 500 nM.

**Q.** Which IC50 does the source give for Cc1cnc(Nc2ccc(C(=O)NC3CCC3)nc2)nc1Nc1ccc2oc(=O)[nH]c2c1 [II-151, 5-[5-Methyl-4-(2-oxo-2,3-dihydro-benzooxazol-5-ylamino)-pyrimidin-2-ylamino]-pyridine-2-carboxylic acid cyclobutylamide] here?
**A.** Its IC50 is under 500 nM.

**Q.** How did the IC50 turn out when COc1cncc(Nc2ncc(C)c(Nc3ccc4oc(=O)[nH]c4c3)n2)c1 [II-152, N2-(5-methoxypyridin-3-yl)-5-methyl-N4-(2-oxo-2,3-dihydro-1,3-benzoxazol-5-yl)-2,4-pyrimidinediamine] was run?
**A.** The IC50 was over 10000 nM.

**Q.** For Cc1cc(Nc2ncc(C)c(Nc3ccc4oc(=O)[nH]c4c3)n2)cnc1C [II-153, N2-(2,3-dimethylpyridin-5-yl)-5-methyl-N4-(2-oxo-2,3-dihydro-1,3-benzoxazol-5-yl)-2,4-pyrimidinediamine], which IC50 is on record?
**A.** Its IC50 is under 500 nM.

**Q.** With Cc1cnc(Nc2ccc3c(c2)CNC3)nc1Nc1ccc2oc(=O)[nH]c2c1 [III-1, N4-(benzo[d]oxazol-2(3H)-on-5-yl)-N2-(isoindolin-5-yl)-5-methylpyrimidine-2,4-diamine] as the compound, how does the IC50 read?
**A.** The IC50 was under 500 nM.

**Q.** Cc1cnc(Nc2ccc3c(c2)CN(O)C3)nc1Nc1ccc2oc(=O)[nH]c2c1 [III-2, N4-(benzo[d]oxazol-2(3H)-on-5-yl)-N2-(2-hydroxyisoindolin-5-yl)-5-methylpyrimidine-2,4-diamine] was tested. Which IC50 did it give?
**A.** The IC50 was under 500 nM.

**Q.** With Cc1cnc(Nc2ccc3c(c2)CN(C)C3)nc1Nc1ccc2oc(=O)[nH]c2c1 [III-4, N4-(benzo[d]oxazol-2(3H)-on-5-yl)-N2-(2-methylisoindolin-5-yl)-5-methylpyrimidine-2,4-diamine] as the compound, how does the IC50 read?
**A.** Its IC50 is under 500 nM.

**Q.** CCN1Cc2ccc(Nc3ncc(C)c(Nc4ccc5oc(=O)[nH]c5c4)n3)cc2C1 [III-5, N4-(benzo[d]oxazol-2(3H)-on-5-yl)-N2-(2-ethylisoindolin-5-yl)-5-methylpyrimidine-2,4-diamine] was tested. Which IC50 did it give?
**A.** Its IC50 is under 500 nM.

**Q.** How did the IC50 turn out when CCCN1Cc2ccc(Nc3ncc(C)c(Nc4ccc5oc(=O)[nH]c5c4)n3)cc2C1 [III-6, N4-(benzo[d]oxazol-2(3H)-on-5-yl)-N2-(2-n-propylisoindolin-5-yl)-5-methylpyrimidine-2,4-diamine] was run?
**A.** The IC50 was under 500 nM.

**Q.** Which IC50 does the source give for Cc1cnc(Nc2ccc3c(c2)CN(CC(C)C)C3)nc1Nc1ccc2oc(=O)[nH]c2c1 [III-8, N4-(benzo[d]oxazol-2(3H)-on-5-yl)-N2-(2-isobutylisoindolin-5-yl)-5-methylpyrimidine-2,4-diamine] here?
**A.** The IC50 was under 500 nM.

**Q.** Which IC50 does the source give for Cc1cnc(Nc2ccc3c(c2)CN(CCC(C)C)C3)nc1Nc1ccc2oc(=O)[nH]c2c1 [III-9, N4-(benzo[d]oxazol-2(3H)-on-5-yl)-N2-(2-isopentylisoindolin-5-yl)-5-methylpyrimidine-2,4-diamine] here?
**A.** Its IC50 is under 500 nM.

**Q.** For Cc1cnc(Nc2ccc3c(c2)CN(CC2CCCC2)C3)nc1Nc1ccc2oc(=O)[nH]c2c1 [III-10, N4-(benzo[d]oxazol-2(3H)-on-5-yl)-N2-(2-cyclopentylmethylisoindolin-5-yl)-5-methylpyrimidine-2,4-diamine], which IC50 is on record?
**A.** Its IC50 is under 500 nM.

**Q.** How did the IC50 turn out when CC(=O)N1Cc2ccc(Nc3ncc(C)c(Nc4ccc5oc(=O)[nH]c5c4)n3)cc2C1 [III-12, 5-[2-(2-Acetyl-2,3-dihydro-1H-isoindol-5-ylamino)-5-methyl-pyrimidin-4-ylamino]-3H-benzooxazol-2-one] was run?
**A.** The IC50 was under 500 nM.

Same assay, conditions: tested under conditions described in Example 3 (IL-2 stimulated human primary T-cell proliferation); read-out: ability to inhibit JAK3 activity, IC50 range (Table V)

**Q.** Which IC50 does the source give for Cc1cnc(Nc2ccc(N3CCN4CCC[C@@H]4C3)nc2)nc1Nc1ccc2oc(=O)[nH]c2c1 [II-132, N2-[2-(R-1,4-diazabicylco[4.3.0]nonan-4-yl)pyridin-5-yl]-5-methyl-N4-(2-oxo-2,3-dihydro-1,3-benzoxazol-5-yl)-2,4-pyrimidinediamine] here?
**A.** Its IC50 is under 500 nM.

**Q.** With Cc1cnc(Nc2ccc(N3CCOC[C@@H]3C)nc2)nc1Nc1ccc2oc(=O)[nH]c2c1 [II-134, 5-methyl-N2-[2-(3 S-methylmorpholino)pyridin-5-yl]-N4-(2-oxo-2,3-dihydro-1,3-benzoxazol-5-yl)-2,4-pyrimidinediamine] as the compound, how does the IC50 read?
**A.** The IC50 was under 500 nM.

**Q.** Which IC50 does the source give for Cc1cnc(Nc2ccc(N3C4CCC3CC(N(C)C)C4)nc2)nc1Nc1ccc2oc(=O)[nH]c2c1 (stereo not shown) [II-137, N2-[2-(3-N,N-dimethylamino-8-azabicyclo[3.2.1]octan-8-yl)pyridin-5-yl]-5-methyl-N4-(2-oxo-2,3-dihydro-1,3-benzoxazol-5-yl)-2,4-pyrimidinediamine] here?
**A.** The IC50 was under 500 nM.

**Q.** How did the IC50 turn out when Cc1cnc(Nc2ccc(N3CCOC(C)C3)nc2)nc1Nc1ccc2oc(=O)[nH]c2c1 (stereo not drawn) [II-138, 5-methyl-N2-[2-(2S-methylmorpholino)pyridin-5-yl]-N4-(2-oxo-2,3-dihydro-1,3-benzoxazol-5-yl)-2,4-pyrimidinediamine] was run?
**A.** Its IC50 is under 500 nM.

**Q.** How did the IC50 turn out when Cc1cnc(Nc2ccc(OCCO)nc2)nc1Nc1ccc2oc(=O)[nH]c2c1 [II-142, N2-[2-(2-hydroxy)ethoxypyridin-5-yl]-5-methyl-N4-(2-oxo-2,3-dihydro-1,3-benzoxazol-5-yl)-2,4-pyrimidinediamine] was run?
**A.** The IC50 was under 500 nM.

**Q.** For COCCOc1ccc(Nc2ncc(C)c(Nc3ccc4oc(=O)[nH]c4c3)n2)cn1 [II-145, N2-[2-(2-methoxy)ethoxypyridin-5-yl]-5-methyl-N4-(2-oxo-2,3-dihydro-1,3-benzoxazol-5-yl)-2,4-pyrimidinediamine], which IC50 is on record?
**A.** The IC50 was under 500 nM.

**Q.** Which IC50 does the source give for Cc1cnc(Nc2ccc(OC(C)(C)C(N)=O)nc2)nc1Nc1ccc2oc(=O)[nH]c2c1 [II-146, N2-[2-(1-aminocarbonyl-1-methyl)ethoxypyridin-5-yl]-5-methyl-N4-(2-oxo-2,3-dihydro-1,3-benzoxazol-5-yl)-2,4-pyrimidinediamine] here?
**A.** Its IC50 is under 500 nM.

**Q.** For Cc1cnc(Nc2ccc(OCCCO)nc2)nc1Nc1ccc2oc(=O)[nH]c2c1 [II-148, N2-[2-(3-hydroxy)propoxypyridin-5-yl]-5-methyl-N4-(2-oxo-2,3-dihydro-1,3-benzoxazol-5-yl)-2,4-pyrimidinediamine], which IC50 is on record?
**A.** Its IC50 is 500 to 5000 nM.

**Q.** COCCCOc1ccc(Nc2ncc(C)c(Nc3ccc4oc(=O)[nH]c4c3)n2)cn1 [II-149, N2-[2-(3-methoxy)propoxypyridin-5-yl]-5-methyl-N4-(2-oxo-2,3-dihydro-1,3-benzoxazol-5-yl)-2,4-pyrimidinediamine] was tested. Which IC50 did it give?
**A.** Its IC50 is under 500 nM.

**Q.** Cc1cnc(Nc2ccc3c(c2)CN(C(=O)OC(C)(C)C)C3)nc1Nc1ccc2oc(=O)[nH]c2c1 [III-3, N4-(benzo[d]oxazol-2(3H)-on-5-yl)-N2-(2-tert-butoxoxycarbonylisoindolin-5-yl)-5-methylpyrimidine-2,4-diamine] was tested. Which IC50 did it give?
**A.** The IC50 was under 500 nM.

**Q.** How did the IC50 turn out when Cc1cnc(Nc2ccc3c(c2)CN(CC2CC2)C3)nc1Nc1ccc2oc(=O)[nH]c2c1 [III-7, N4-(benzo[d]oxazol-2(3H)-on-5-yl)-N2-(2-cyclopropylmethylylisoindolin-5-yl)-5-methylpyrimidine-2,4-diamine] was run?
**A.** Its IC50 is under 500 nM.
